Reference: PMC6384738, “Structure-Function Studies of Polymyxin B Lipononapeptides” (Molecules, 2019)
Converted amounts (≈) assume the structure as drawn. *1 amine or outer side, *2 acyl side, *3 side chain or, on linkers, in order; H or OH if unused. Where a SMILES comes first, the peptide text is derived from it. Bridges are numbered along the chain shown (N, C = ends). [ ]: non-standard residue; d: D form. The star is where a group is joined. Hexanoyl(6-Ph) = O=C(CCCCCc1ccccc1)*; NH(2-ClPh) = Clc1ccccc1N*; dDab = NCC[C@@H](N)C(=O)O; hSer = N[C@@H](CCO)C(=O)O; Octanoyl = CCCCCCCC(=O)*; Dab = NCC[C@H](N)C(=O)O; CO = O=C([*:1])[*:2]

Legend:
S. aureus ATCC 25923 = test: microbe, parasite or virus in culture
Summary of the method: (§1)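 Broth microdilution; read-out = minimum inhibitory concentration, mg/L. Comparators: polymyxin B, colistin, vancomycin, gentamicin.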

K. pneumoniae ATCC 13833 = test: microbe, parasite or virus in culture
Summary of the method: as §1

P. aeruginosa ATTC 27853 = test: microbe, parasite or virus in culture
Summary of the method: as §1

A. baumannii ATCC 19606 = test: microbe, parasite or virus in culture
Summary of the method: as §1

[1] = test system: K. pneumoniae ATCC 700603; test: microbe, parasite or virus in culture
Summary of the method: as §1

E. coli ATCC 25922 = test: microbe, parasite or virus in culture
Summary of the method: as §1

[2] = test system: P. aeruginosa FADDI PA070; test: microbe, parasite or virus in culture
Summary of the method: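 Compounds are diluted in broth, the strain is added, and the lowest concentration that inhibits growth is taken as the MIC (mg/L).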

K. pneumoniae BAA 2146 = test: microbe, parasite or virus in culture
Summary of the method: as §1

[3] = test system: human proximal tubular epithelial cells (HK-2); test: Cytotoxicity, LDH release assay in HK-2 cells
Summary of the method: (§2)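 HK-2 cells seeded 2000 cells/well in DMEM/F12 with 10% FBS, grown 24 h, then exposed to compounds (300 µM to 2.3 µM, 2-fold series; colistin/polymyxin B 1 mM to 7.8 µM) for 24 h at 37 °C. LDH in medium read at 450 nm after 30 min; cytotoxicity % relative to 1% Triton X-100 and untreated cells.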

[4] = test system: ATCC reference strains (Escherichia coli, Klebsiella pneumoniae, A. baumannii, and P. aeruginosa)
Description: All compounds synthesised in this study were assessed for their minimum inhibitory concentrations (MIC, mg/L) by broth microdilution assay against five antibiotic-sensitive and resistant ATCC reference strains covering the Gram-negative ESKAPE pathogens (Escherichia coli, Klebsiella pneumoniae, A. baumannii, and P. aeruginosa) (Table 1, Table 2 and Table 3). Staphylococcus aureus was also included as a representative Gram-positive bacterial strain. […] Polymyxin B 1, colistin 2, vancomycin and gentamicin were used as positive inhibitor comparator compounds. Compounds were counter-screened against human proximal tubular epithelial cells (HK-2), using LDH release as a general indicator of cellular toxicity.

in vitro = conditions: human
Summary of the method: as §2

[5] = Gram-positive strain, broth microdilution, 18 h
[6] = ESBL strain, broth microdilution, 18 h
[7] = broth microdilution, 18 h, 37 °C
[8] = Pmx-resistant clinical isolate, broth microdilution, 18 h
[9] = NDM-1 positive strain, broth microdilution, 18 h

Row | Compound | MIC S. aureus ATCC 25923 (S. aureus ATCC 25923; [5]) [µg/mL] | MIC K. pneumoniae ATCC 13833 (K. pneumoniae ATCC 13833; broth microdilution, 18 h) [µg/mL] | MIC P. aeruginosa ATTC 27853 (P. aeruginosa ATTC 27853; broth microdilution, 18 h) [µg/mL] | MIC A. baumannii ATCC 19606 (A. baumannii ATCC 19606; broth microdilution, 18 h) [µg/mL] | MIC K. pneumoniae ATCC 700603 [1, 6] [µg/mL] | MIC E. coli ATCC 25922 (E. coli ATCC 25922; [7]) [µg/mL] | MIC P. aeruginosa FADDI PA070 [2, 8] [µg/mL] | MIC K. pneumoniae BAA 2146 (K. pneumoniae BAA 2146; [9]) [µg/mL] | MIC S. aureus ATCC 25923 (S. aureus ATCC 25923; ATCC 25923, 18 h) [µg/mL] | MIC K. pneumoniae ATCC 13833 (K. pneumoniae ATCC 13833; ATCC 13833, 18 h) [µg/mL] | MIC P. aeruginosa ATTC 27853 (P. aeruginosa ATTC 27853; ATTC 27853, 18 h) [µg/mL] | MIC A. baumannii ATCC 19606 (A. baumannii ATCC 19606; ATCC 19606, 18 h) [µg/mL] | MIC K. pneumoniae ATCC 700603 ([1]; ATCC 700603, 18 h) [µg/mL] | MIC E. coli ATCC 25922 (E. coli ATCC 25922; ATCC 25922, 18 h) [µg/mL] | MIC K. pneumoniae BAA 2146 (K. pneumoniae BAA 2146; BAA 2146, 18 h) [µg/mL] | CC50 at 24 h (in vitro) [µM] | also measured
1 | polymyxin B [PmxB 1, reference compound] | >32 | 1 | 0.5 | 0.25 | 0.5 | 1 | 32 | 0.25 | – | – | – | – | – | – | – | – | CC50 ([3]; read-out: CC50 HK-2, LDH release, 24 h incubation): > 300 µM
2 | CC(C)C[C@@H]1NC(=O)[C@@H](Cc2ccccc2)NC(=O)[C@H](CCN)NC(=O)[C@@H](NC(=O)[C@@H](CCN)NC(=O)[C@@H](NC(=O)CCCCCc2ccccc2)[C@@H](C)O)CCNC(=O)[C@H]([C@@H](C)O)NC(=O)[C@H](CCN)NC(=O)[C@H](CCN)NC1=O [Compound 25] ({Hexanoyl(6-Ph)}-T[dDab][Dab][Dab][dF]L[Dab][Dab]T; lactam 3-C) | – | – | – | – | – | – | – | – | >32 | 4 (≈ 3.52 µM) | 2 (≈ 1.76 µM) | 2 (≈ 1.76 µM) | 1 (≈ 0.879 µM) | 0.5 (≈ 0.44 µM) | 0.5 (≈ 0.44 µM) | > 300 | MIC P. aeruginosa FADDI PA070 ([2]; FADDI PA070, 18 h): 8 µg/mL (≈ 7.03 µM); MIC against the ATCC strains [4]: 0.5 to 4 µg/mL
3 | CC(C)C[C@@H]1NC(=O)[C@@H](Cc2ccccc2)NC(=O)[C@H](CCN)NC(=O)[C@@H](NC(=O)[C@@H](CCN)NC(=O)[C@@H](NC(=O)Nc2ccccc2Cl)[C@@H](C)O)CCNC(=O)[C@H]([C@@H](C)O)NC(=O)[C@H](CCN)NC(=O)[C@H](CCN)NC1=O [Compound 22] ({NH(2-ClPh)-CO}-T[dDab][Dab][Dab][dF]L[Dab][Dab]T; lactam 3-C) | >32 | 16 (≈ 14.3 µM) | 2 (≈ 1.79 µM) | >32 | 16 (≈ 14.3 µM) | 16 (≈ 14.3 µM) | >32 | 16 (≈ 14.3 µM) | – | – | – | – | – | – | – | > 300 | –
4 | CN[C@H](CC(C)C)C(=O)N[C@H]1C(=O)N[C@@H](CC(N)=O)C(=O)N[C@H]2C(=O)N[C@H]3C(=O)N[C@H](C(=O)N[C@H](C(=O)O)c4cc(O)cc(O)c4-c4cc3ccc4O)[C@H](O)c3ccc(c(Cl)c3)Oc3cc2cc(c3O[C@@H]2O[C@H](CO)[C@@H](O)[C@H](O)[C@H]2O[C@H]2C[C@](C)(N)[C@H](O)[C@H](C)O2)Oc2ccc(cc2Cl)[C@H]1O [Vanc, vancomycin, reference compound] | – | – | – | – | – | – | – | – | – | – | – | – | – | – | – | > 300 | MIC (S. aureus ATCC 25923; Staphylococcus aureus, ATCC25923, 18 h, read-out: MIC S. aureus ATCC 25923): 2 µg/mL (≈ 1.38 µM); MIC (K. pneumoniae ATCC 13833; Klebsiella pneumoniae, ATCC13833, 18 h, read-out: MIC K. pneumoniae ATCC 13833): > 32 µg/mL; MIC (P. aeruginosa ATTC 27853; Pseudomonas aeruginosa, ATTC27853, 18 h, read-out: MIC P. aeruginosa ATTC 27853): > 32 µg/mL; MIC (A. baumannii ATCC 19606; Acinetobacter baumannii, ATCC19606, 18 h, read-out: MIC A. baumannii ATCC 19606): > 32 µg/mL; MIC ([1]; Klebsiella pneumoniae, ATCC700603, 18 h, read-out: MIC K. pneumoniae ATCC 700603): > 32 µg/mL; MIC (E. coli ATCC 25922; Escherichia coli, ATCC25922, 18 h, read-out: MIC E. coli ATCC 25922): > 32 µg/mL; MIC ([2]; Pseudomonas aeruginosa, FADDIPA070, 18 h, read-out: MIC P. aeruginosa FADDI PA070): > 32 µg/mL; MIC (K. pneumoniae BAA 2146; Klebsiella pneumoniae, BAA2146, 18 h, read-out: MIC K. pneumoniae BAA 2146): > 32 µg/mL
5 | CCCCCCCC(=O)N[C@H](C(=O)N[C@@H](CO)C(=O)N[C@H]1CCNC(=O)[C@H]([C@@H](C)O)NC(=O)[C@H](CCN)NC(=O)[C@H](CCN)NC(=O)[C@H](CC(C)C)NC(=O)[C@@H](Cc2ccccc2)NC(=O)[C@H](CCN)NC1=O)[C@@H](C)O [Compound 35] (Octanoyl-TS[Dab][Dab][dF]L[Dab][Dab]T; lactam 3-C) | – | – | – | – | – | – | – | – | >32 | >32 | 16 (≈ 14.9 µM) | >32 | 32 (≈ 29.7 µM) | – | 16 (≈ 14.9 µM) | 220 | MIC for most strains [4]: 16 to 32 µg/mL
6 | CCCCCCCC(=O)N[C@@H](CCO)C(=O)N[C@H](CCN)C(=O)N[C@H]1CCNC(=O)[C@H]([C@@H](C)O)NC(=O)[C@H](CCN)NC(=O)[C@H](CCN)NC(=O)[C@H](CC(C)C)NC(=O)[C@@H](Cc2ccccc2)NC(=O)[C@H](CCN)NC1=O [Compound 31] (Octanoyl-[hSer][dDab][Dab][Dab][dF]L[Dab][Dab]T; lactam 3-C) | – | – | – | – | – | – | – | – | >32 | >32 | 2 (≈ 1.84 µM) | >32 | 8 (≈ 7.34 µM) | 16 (≈ 14.7 µM) | 8 (≈ 7.34 µM) | 181 | MIC P. aeruginosa FADDI PA070 ([2]; FADDI PA070, 18 h): 8 µg/mL (≈ 7.34 µM)
7 | CCCCCCCC(=O)N[C@@H](CCN)C(=O)N[C@H](C(=O)N[C@@H](CCN)C(=O)N[C@H]1CCNC(=O)[C@H]([C@@H](C)O)NC(=O)[C@H](CCN)NC(=O)[C@H](CCN)NC(=O)[C@H](CC(C)C)NC(=O)[C@@H](Cc2ccccc2)NC(=O)[C@H](CCN)NC1=O)[C@@H](C)O [PmxB3, polymyxin B3, reference compound] (Octanoyl-[Dab]T[Dab][Dab][Dab][dF]L[Dab][Dab]T; lactam 4-C) | – | – | – | – | – | – | – | – | >32 | 2 (≈ 1.68 µM) | 0.5 (≈ 0.42 µM) | – | 1 (≈ 0.841 µM) | – | 0.5 (≈ 0.42 µM) | > 300 | fold more active than nonapeptide 8 ([4]; MIC comparison against most strains): 2- to 4 fold
8 | colistin [Col 2, reference compound] | >32 | 0.25 | 0.5 | 0.25 | 0.25 | 0.25 | >32 | 0.25 | – | – | – | – | – | – | – | – | CC50 [3]: > 300 µM
9 | CCCCCCCC(=O)N[C@H](C(=O)N[C@@H](CCN)C(=O)N[C@H]1CCNC(=O)[C@H]([C@@H](C)O)NC(=O)[C@H](CCN)NC(=O)[C@H](CCN)NC(=O)[C@H](CC(C)C)NC(=O)[C@@H](Cc2ccccc2)NC(=O)[C@H](CCN)NC1=O)[C@@H](C)O [Compound 8] (Octanoyl-T[Dab][Dab][Dab][dF]L[Dab][Dab]T; lactam 3-C) | – | – | – | – | – | – | – | – | >32 | 1 (≈ 0.918 µM) | 0.5 (≈ 0.459 µM) | – | 2 (≈ 1.84 µM) | – | 2 (≈ 1.84 µM) | 209 | MIC for most strains [4]: 1 to 2 µg/mL
10 | CCCCCCCC(=O)N[C@H](C(=O)N[C@@H](CCN)C(=O)N[C@@H]1CCNC(=O)[C@H]([C@@H](C)O)NC(=O)[C@H](CCN)NC(=O)[C@H](CCN)NC(=O)[C@H](CC(C)C)NC(=O)[C@@H](Cc2ccccc2)NC(=O)[C@H](CCN)NC1=O)[C@@H](C)O [Compound 19] (Octanoyl-T[Dab][dDab][Dab][dF]L[Dab][Dab]T; lactam 3-C) | – | – | – | – | – | – | – | – | >32 | >32 | >32 | >32 | >32 | >32 | >32 | > 300 | MIC for all strains [4]: > 32 µg/mL
